Numbers after ± are expanded uncertainties.
Test: refractive index (Na D-line) (dimensionless); xn = mol fraction of the nth substance listed
Details: 101 kPa, Liquid, Standard Abbe refractometry

CCCCOC(C)=O [butyl ethanoate] + Cc1ccc(C)cc1
refractive index
Details	293.15 K	298.15 K	303.15 K	308.15 K	313.15 K
x1 = 0.0494	1.49045 ± 0.0007	1.48779 ± 0.0007	1.48504 ± 0.0007	1.48238 ± 0.00069	1.47977 ± 0.00069
x1 = 0.1014	1.48487 ± 0.00071	1.48216 ± 0.00071	1.4794 ± 0.00069	1.47685 ± 0.00069	1.47409 ± 0.0007
x1 = 0.1494	1.4798 ± 0.0007	1.4771 ± 0.0007	1.47436 ± 0.0007	1.47174 ± 0.0007	1.46903 ± 0.0007
x1 = 0.2012	1.47424 ± 0.00071	1.47153 ± 0.00071	1.46878 ± 0.00069	1.46623 ± 0.00069	1.46356 ± 0.0007
x1 = 0.248	1.46931 ± 0.0007	1.46663 ± 0.0007	1.46387 ± 0.00069	1.46134 ± 0.00069	1.45863 ± 0.0007
x1 = 0.3077	1.46309 ± 0.0007	1.46041 ± 0.0007	1.45768 ± 0.00069	1.45514 ± 0.00069	1.45247 ± 0.0007
x1 = 0.3519	1.45847 ± 0.0007	1.45583 ± 0.0007	1.45312 ± 0.00069	1.45058 ± 0.00069	1.44789 ± 0.0007
x1 = 0.404	1.45307 ± 0.00069	1.45044 ± 0.0007	1.44776 ± 0.00069	1.44522 ± 0.00068	1.44259 ± 0.00069
x1 = 0.4519	1.44815 ± 0.00069	1.44554 ± 0.00069	1.44286 ± 0.00069	1.44032 ± 0.00068	1.4377 ± 0.00069
x1 = 0.4999	1.44322 ± 0.00069	1.44061 ± 0.00069	1.43796 ± 0.00069	1.43542 ± 0.00068	1.43282 ± 0.00068
x1 = 0.5505	1.43808 ± 0.00069	1.4355 ± 0.00069	1.43288 ± 0.00068	1.43034 ± 0.00068	1.42775 ± 0.00069
x1 = 0.5991	1.43317 ± 0.00068	1.4306 ± 0.00069	1.42798 ± 0.00068	1.42546 ± 0.00068	1.42286 ± 0.00068
x1 = 0.6518	1.42787 ± 0.00068	1.42531 ± 0.00068	1.42272 ± 0.00068	1.42021 ± 0.00068	1.41762 ± 0.00068
x1 = 0.6993	1.42315 ± 0.00068	1.42063 ± 0.00068	1.41806 ± 0.00068	1.41551 ± 0.00068	1.41295 ± 0.00068
x1 = 0.749	1.41825 ± 0.00068	1.41572 ± 0.00068	1.41319 ± 0.00068	1.41066 ± 0.00068	1.40812 ± 0.00068
x1 = 0.799	1.41333 ± 0.00067	1.41087 ± 0.00067	1.40834 ± 0.00068	1.40581 ± 0.00068	1.40327 ± 0.00067
x1 = 0.8519	1.4083 ± 0.00067	1.40578 ± 0.00067	1.40327 ± 0.00067	1.40076 ± 0.00067	1.39826 ± 0.00067
x1 = 0.8979	1.40384 ± 0.00067	1.40137 ± 0.00067	1.39885 ± 0.00067	1.39641 ± 0.00067	1.3939 ± 0.00067
x1 = 0.9489	1.39894 ± 0.00066	1.39654 ± 0.00066	1.39405 ± 0.00067	1.39155 ± 0.00067	1.3891 ± 0.00066
